The values below come from patent US6960458B2, “Erythrose reductase, its cDNA and cell which the cDNA express” (Director of National Food Research Institute, Ministry of …, priority 2001, dated 2005).

The subject of data set [1] is recombinant erythrose reductase type III. The data set can be described thus: Substrate specificity of purified recombinant erythrose reductase type III, NADPH consumption at 340 nm. It is filed as biochemical, Trichosporonoides megachiliensis. Particulars: rate with D-erythrose = 100%; 12 mM substrate, 0.2 mM NADPH, 50 mM phosphate buffer pH 6.5, 37° C., 5 minutes. The protocol: (§1) The substrate specificities of the purified recombinant erythrose reductases type III, type II, and type I were compared with that of the erythrose reductase heretofore reported (natural type: H. Ishizuka et al., Biosci. Biotech. Biochem., 56(6), 941-945, 1992).
(§2) In the presence of 50 mM of a phosphate buffer at pH 6.5, 12 mM of a substrate, and 0.2 mM of NADPH, 20 μL of an enzyme was acted (1 mL in total), and a change with time in optical absorbance at 340 nm was measured at 37° C. for 5 minutes.
(§3) With the reaction rate at which erythrose is reduced as a substrate as being 100%, relative values (%) of reaction rates for reducing various ketoses and aldoses are shown in Table 1.

In data set [2] the test system is recombinant erythrose reductase type II. The data set can be described thus: Substrate specificity of purified recombinant erythrose reductase type II, NADPH consumption at 340 nm. It is filed as biochemical, Trichosporonoides megachiliensis. The settings on record: rate with D-erythrose = 100%; 12 mM substrate, 0.2 mM NADPH, 50 mM phosphate buffer pH 6.5, 37° C., 5 minutes. The procedure: as §1, §2, §3

Data set [3] has as its system recombinant erythrose reductase type I. The data set can be described thus: Substrate specificity of purified recombinant erythrose reductase type I, NADPH consumption at 340 nm. The settings on record: rate with D-erythrose = 100%; 12 mM substrate, 0.2 mM NADPH, 50 mM phosphate buffer pH 6.5, 37° C., 5 minutes. The data set is classed as biochemical, Trichosporonoides megachiliensis. The procedure:
as §1, §2, §3

Data set [4] deals with natural type erythrose reductase type III. The settings on record: rate with D-erythrose = 100%; 12 mM substrate, 0.2 mM NADPH, 50 mM phosphate buffer pH 6.5, 37° C.; reported natural type (Ishizuka et al. 1992); cited from earlier work.
Data set [5] is described as follows: IEF-PAGE (isoelectric focusing) of purified recombinant erythrose reductases. The data set is classed as physicochemical. Particulars: Phast Gel IEF pH 4-6.5, from mobility of band. The procedure: On the purified recombinant erythrose reductases, IEF-PAGE was carried out with a fully automatic electrophoresis system called Phast System (produced by Amersham Pharmacia Biotech), using a gel (trade name: Phast Gel (IEF pH 4-6.5), manufacturer: Amersham Pharmacia Biotech).
Electrophoresis was conducted using a pH gradient gel, and the separated proteins were stained.
From FIG. 9, the isoelectric point of each enzyme could be confirmed from the mobility of a band.

With `O=C[C@H](O)[C@@H](O)[C@@H](O)[C@H](O)CO` [D-galactose], the “Relative value (%) of reaction rate, Recombinant type Type III” value in data set [1] is reported as 0.0%. For the same molecule, the “Relative value (%) of reaction rate, Recombinant type Type II” value in data set [2] was 0.0%. Also, in data set [3], the “Relative value (%) of reaction rate, Recombinant type Type I” value was 0.0%. In addition, the “Relative value (%) of reaction rate, Normal type Type III” value in data set [4] is listed as 0.0%.

On to `O=C[C@@H](O)[C@H](O)[C@H](O)CO` [D-arabinose], for which the “Relative value (%) of reaction rate, Recombinant type Type III” value in data set [1] is on record as 0.0%. Besides, in data set [2], the “Relative value (%) of reaction rate, Recombinant type Type II” value amounted to 0.0%. In addition, the “Relative value (%) of reaction rate, Recombinant type Type I” value in data set [3] is recorded as 0.9%. For the same molecule, the “Relative value (%) of reaction rate, Normal type Type III” value in data set [4] is given as 0.0%.

With `O=C(CO)[C@@H](O)[C@H](O)[C@H](O)CO` [D-fructose], the “Relative value (%) of reaction rate, Recombinant type Type III” value in data set [1] was 0.0%. Also, the “Relative value (%) of reaction rate, Recombinant type Type II” value in data set [2] was 0.0%. Moreover, the “Relative value (%) of reaction rate, Recombinant type Type I” value in data set [3] is recorded as 0.0%. Besides, the “Relative value (%) of reaction rate, Normal type Type III” value in data set [4] is recorded as 0.0%.

Turning to `O=C(CO)[C@@H](O)[C@H](O)CO` [D-xylulose], the “Relative value (%) of reaction rate, Recombinant type Type III” value in data set [1] is 7.8%. Besides, the “Relative value (%) of reaction rate, Recombinant type Type II” value in data set [2] turned out to be 3.5%. For the same molecule, in data set [3], the “Relative value (%) of reaction rate, Recombinant type Type I” value was 7.5%. Moreover, the “Relative value (%) of reaction rate, Normal type Type III” value in data set [4] was 0.0%.

Turning to `O=C[C@H](O)[C@@H](O)[C@H](O)[C@H](O)C(=O)O` [D-glucuronate], in data set [1], the “Relative value (%) of reaction rate, Recombinant type Type III” value was determined as 0.8%. The “Relative value (%) of reaction rate, Recombinant type Type II” value in data set [2] is on record as 0.0%. For the same molecule, the “Relative value (%) of reaction rate, Recombinant type Type I” value in data set [3] came to 0.7%. Besides, the “Relative value (%) of reaction rate, Normal type Type III” value in data set [4] is recorded as 6.6%.

Regarding `O=Cc1ccc([N+](=O)[O-])cc1` [p-nitrobenzaldehyde], the “Relative value (%) of reaction rate, Recombinant type Type III” value in data set [1] came out at 66.3%. In addition, the “Relative value (%) of reaction rate, Recombinant type Type II” value in data set [2] amounted to 8.8%. In addition, the “Relative value (%) of reaction rate, Recombinant type Type I” value in data set [3] is reported as 11.5%. Moreover, the “Relative value (%) of reaction rate, Normal type Type III” value in data set [4] is 46.0%.

Consider `O=C[C@H](O)[C@H](O)CO` [D-erythrose], for which the “Relative value (%) of reaction rate, Recombinant type Type III” value in data set [1] came out at 100.0%. In addition, the “Relative value (%) of reaction rate, Recombinant type Type II” value in data set [2] stood at 100.0%. For the same molecule, the “Relative value (%) of reaction rate, Recombinant type Type I” value in data set [3] came out at 100.0%. Moreover, the “Relative value (%) of reaction rate, Normal type Type III” value in data set [4] is 100.0%.

For `O=C(CO)[C@@H](O)CO` [L-erythrulose], in data set [4], the “Relative value (%) of reaction rate, Normal type Type III” value is 38.0%.

For `O=C[C@H](O)[C@@H](O)[C@H](O)[C@H](O)CO` [D-glucose], the “Relative value (%) of reaction rate, Recombinant type Type III” value in data set [1] was 0.0%. The “Relative value (%) of reaction rate, Recombinant type Type II” value in data set [2] is 0.0%. In addition, in data set [3], the “Relative value (%) of reaction rate, Recombinant type Type I” value amounted to 0.0%. The “Relative value (%) of reaction rate, Normal type Type III” value in data set [4] is recorded as 0.0%.

As for `O=C[C@H](O)[C@H](O)[C@H](O)CO` [D-ribose], in data set [1], the “Relative value (%) of reaction rate, Recombinant type Type III” value is 2.3%. The “Relative value (%) of reaction rate, Recombinant type Type II” value in data set [2] is listed as 0.7%. For the same molecule, the “Relative value (%) of reaction rate, Recombinant type Type I” value in data set [3] came out at 1.0%. Further, the “Relative value (%) of reaction rate, Normal type Type III” value in data set [4] is given as 1.2%.

For the molecule `O=C(CO)[C@@H](O)[C@H](O)[C@@H](O)CO` [L-sorbose], the “Relative value (%) of reaction rate, Recombinant type Type III” value in data set [1] stood at 0.0%. In addition, the “Relative value (%) of reaction rate, Recombinant type Type II” value in data set [2] was 0.0%. Further, in data set [3], the “Relative value (%) of reaction rate, Recombinant type Type I” value was determined as 0.0%. Besides, in data set [4], the “Relative value (%) of reaction rate, Normal type Type III” value is 0.0%.

For `O=C[C@@H](O)[C@@H](O)[C@H](O)[C@H](O)CO` [D-mannose], the “Relative value (%) of reaction rate, Recombinant type Type III” value in data set [1] was determined as 0.0%. Besides, the “Relative value (%) of reaction rate, Recombinant type Type II” value in data set [2] is on record as 0.0%. Further, the “Relative value (%) of reaction rate, Recombinant type Type I” value in data set [3] was determined as 0.0%. For the same molecule, in data set [4], the “Relative value (%) of reaction rate, Normal type Type III” value is 0.0%.

Consider `O=C[C@H](O)CO` [D-glyceraldehyde], for which the “Relative value (%) of reaction rate, Recombinant type Type III” value in data set [1] is 98.2%. Besides, the “Relative value (%) of reaction rate, Recombinant type Type II” value in data set [2] came out at 107.8%. The “Relative value (%) of reaction rate, Recombinant type Type I” value in data set [3] was determined as 102.0%. The “Relative value (%) of reaction rate, Normal type Type III” value in data set [4] is reported as 66.0%.

Consider `OC[C@H]1O[C@H](O[C@H]2O[C@H](CO)[C@@H](O)[C@H](O)[C@H]2O)[C@H](O)[C@@H](O)[C@@H]1O` [Trehalose], for which the “Relative value (%) of reaction rate, Recombinant type Type III” value in data set [1] was 0.0%. The “Relative value (%) of reaction rate, Recombinant type Type II” value in data set [2] was determined as 0.0%. The “Relative value (%) of reaction rate, Recombinant type Type I” value in data set [3] amounted to 0.0%. In addition, the “Relative value (%) of reaction rate, Normal type Type III” value in data set [4] is recorded as 0.0%.

As for `O=C[C@H](O)[C@@H](O)[C@H](O)CO` [D-xylose], the “Relative value (%) of reaction rate, Recombinant type Type III” value in data set [1] stood at 4.5%. In data set [2], the “Relative value (%) of reaction rate, Recombinant type Type II” value is on record as 2.4%. The “Relative value (%) of reaction rate, Recombinant type Type I” value in data set [3] worked out at 3.2%. In addition, the “Relative value (%) of reaction rate, Normal type Type III” value in data set [4] is reported as 1.2%.

B1: purified recombinant erythrose reductase type II: recombinant enzyme of SEQ. ID No. 4 expressed in E. coli, histidine Tag cleaved (protein)
chain: MSYKQYIPLNDGNKIPALGFGTWQAEPGQVGASVKNAVKAGYRHLDLAKVYQNQSEIGVALQELFDQGIVKREDLFITSKVWNNRHAPEHVEPALDETLKELGLSYLDLYLIHWPVAFKFTTPQELFPTEPDNKELAAIDDSIKLVDTWKAVVALKKTGKTKSVGVSNFTTDLVDLVEKASGERPAVNQIEAHPLLQQDELVAHHKSKNIVITAYSPLGNNVSGKPPLTQNPGIEATAKRLNHTPAAVLLAWGIQRGYSVLVKSVTPSRIESNYDQITLSPEEFQKVTDLIKEYGESRNNIPLNYKPSWPISVFGTSDEAKATHKINTNL
Consider B1, for which the “isoelectric point (pI)” value in data set [5] was 5.3.

B2: purified recombinant erythrose reductase type III: recombinant enzyme of SEQ. ID No. 2 expressed in E. coli, histidine Tag cleaved (protein)
chain: B1 chain
For B2, the “isoelectric point (pI)” value in data set [5] is given as 5.8.

B3: purified recombinant erythrose reductase type I: recombinant enzyme of SEQ. ID No. 6 expressed in E. coli, histidine Tag cleaved (protein)
chain: MSYNKNIPLNDGNSIPALGYGTWQAEPGQVGEGVKLAVKAGYRHLDLAKVYQNQTEIGQALKELFDEGVVKREDLFITSKLWNNRHAPEHVEPALDETLKELGLSYLDLYLIHWPVAFKFTTPDELLPADPTNKDLAYIDDSVKLSDTWKAVVALKKTGKTKSVGVSNFSTRLVDLVEEASGERPAVNQIEAHPLLQQDELVAHHKSKNIVITAYSPLGNNVAGKPPLTENPGIVDAAKRLNHTPAAVLIAWGIQRGYSVLVKSVTPSRIKSNFEQITLSDEEFQRVTNLIKEYGESRNNVPFNYKPSWSIDVFGTQYEAKATHKINA
As to B3, the “isoelectric point (pI)” value in data set [5] was 4.7.
